The values that follow come from US4994457A, “Antiinflammatory compositions and methods” (Pfizer Inc., priority 1987, dated 1991).

The test system of data set [1] is Piroxicam-Induced Gastric Lesions in Rats. As to the kind of experiment: Protective effect of disodium 5'-guanylate on piroxicam-induced gastric lesions in rats. The format is in vivo, CD strain (Sprague-Dawley), male. The note with it: for Lesions/Rat (X +/- SE): mean (SE). The protocol: (§1) Adult male "specific pathogen free" rats weighing 140-160 grams of the CD strain (Sprague-Dawley) were obtained from Charles River Breeding Laboratories (Kingston, N.Y.). The animals were acclimated for approximately one week and tested when they reached a body weight of 200-225 grams. The rats were fasted for 16 hours and randomized into groups consisting of 10 animals which were normalized with regard to their average body weight.
(§2) Gastric ulcers were induced in the animals by orally dosing them with a single 120 mg/kg dose of piroxicam (ethanolamine salt) in 2 ml. of aqueous 0.1% methylcellulose (pH=6.8). Those animals receiving disodium 5'-guanylate separately received the second drug in an additional 2 ml. of the same medium at about the same time. Six and one-half hours later, the animals were sacrificed by cervical dislocation and autopsied. The stomachs were surgically removed, dissected along the greater curvature and rinsed with cold water. The stomachs were individually scored for both linear and punctate lesions. The total number of lesions was used for scoring purposes. The data obtained from each group of rats was analyzed after calculation of the mean number +/- the standard error of total gastric lesions. The values obtained were also compared to the controls which received only piroxicam by the two-tailed Student's T-Test for non-paired data.

Data set [2] relates to Piroxicam Induced Gastric Lesions in Rats. Kind of data set: Protective effect of N-acetyl-L-methionine on piroxicam induced gastric lesions in rats. The format is in vivo, CD strain (Sprague-Dawley), male. The note with it: for Lesions/Rat (X +/- SE): mean (SE). The protocol:
as §1, §2
By the procedure of the preceding Example, the protective effect of the N-acetyl-L-methionine on piroxicam induced gastric lesions in rats was determined.

The next data set has as its system gastric ulcers in rats. The following applies: Tanaka et al. 1982, Kunimi et al. 1982; cited from earlier work.
Data set [3] relates to gastrointestinal ulcers induced by the subcutaneous injection of indomethacin. The following applies: Urishidani et al. 1977; cited from earlier work.
In data set [4] the test system is gastric mucosal damage of aspirin solutions in rats. The note with it: Lim et al. 1979; cited from earlier work.
The conditions of data set [5]: stated as background for single daily dosage; cited from earlier work.

SMILES strings stand for the structures. Structures can show the parent of a compound that is named as a salt.

On to `Nc1nc2c(ncn2[C@@H]2O[C@H](COP(=O)(O)O)[C@@H](O)[C@H]2O)c(=O)[nH]1` [Disodium 5'-Guanylate, guanosine 5'-monophosphate], for which, in data set [1] (healthy fasted rat, oral), the “reduction of piroxicam-induced gastric lesions” value is on record as “significantly reduces piroxicam-induced gastric lesions”. In addition, the “Lesions/Rat (X +/- SE)” value in data set [1] (oral 1.0 mg/kg, 20 rats, with 120 mg/kg piroxicam ethanolamine salt) is given as 8.1 (0.7) Lesions/Rat; in data set [1] (oral 3.3 mg/kg, 20 rats, with 120 mg/kg piroxicam ethanolamine salt), 5.8 (0.5) Lesions/Rat; in data set [1] (oral 10.0 mg/kg, 30 rats, with 120 mg/kg piroxicam ethanolamine salt), 4.6 (0.8) Lesions/Rat; in data set [1] (oral 33.0 mg/kg, 40 rats, with 120 mg/kg piroxicam ethanolamine salt), 3.9 (0.6) Lesions/Rat.

For `CN1C(C(=O)Nc2ccccn2)=C(O)c2ccccc2S1(=O)=O` [Ethanolamine Salt of Piroxicam, 4-hydroxy-2-methyl-N-2-pyridinyl-2H-1,2-benzothiazine-3-carboxamide 1,1-dioxide, reference compound], the “Lesions/Rat (X +/- SE)” value in data set [1] (control: 120 mg/kg oral ethanolamine salt of piroxicam alone, 40 rats, 6.5 h) is recorded as 8.3 (0.9) Lesions/Rat; in data set [2] (control: 120 mg/kg oral ethanolamine salt of piroxicam alone, 50 rats), 8.0 (0.8) Lesions/Rat.

As to `NCCC(=O)N[C@@H](Cc1cnc[nH]1)C(=O)O` [L-carnosine], in the data set with gastric ulcers in rats, the “prevention of the exacerbation of gastric ulcers by certain antiinflammatory agents” value (shortened to “prevention”) is “not”.

For `CSCC[C@H](NC(C)=O)C(=O)O` [N-Acetyl-L-methionine, N-acetyl-L-methionine], in data set [2] (Rattus norvegicus, 6.5 h, oral, 120 mg/kg piroxicam ethanolamine salt, read-out: ED50 (dose of the N-acetylmethionine required to inhibit 50% of control gastric lesions)), the ED50 fell in the range of 100 to 333 mg/kg. The “Lesions/Rat (X +/- SE)” value is on record as 6.9 (0.8) Lesions/Rat in data set [2] (oral 33 mg/kg, 50 rats, with 120 mg/kg piroxicam ethanolamine salt); 3.9 (0.8) Lesions/Rat in data set [2] (oral 100 mg/kg, 40 rats, with 120 mg/kg piroxicam ethanolamine salt); 3.5 (0.9) Lesions/Rat in data set [2] (oral 333 mg/kg, 20 rats, with 120 mg/kg piroxicam ethanolamine salt).

For the compound `CC(=O)NCCC(=O)N[C@@H](Cc1c[nH]cn1)C(=O)O` [N-acetyl-L-carnosine, N-(N-acetyl-beta-alanyl)-L-histidine], the “prevention” value in the data set with gastric ulcers in rats is given as “not”.

`CC(=O)NCCC(=O)N[C@@H](Cc1c[nH]cn1)C(=O)O` [aluminum salts of N-acetyl-L-carnosine, N-(N-acetyl-beta-alanyl)-L-histidine]: the “prevention” value in the data set with gastric ulcers in rats is on record as “prevent the exacerbation of gastric ulcers”.

For `CC(=O)N[C@@H](CCC(N)=O)C(=O)O` [aluminum salts of N-acetyl-L-glutamine, N-acetyl-L-glutamine], the “prevention” value in the data set with gastric ulcers in rats was “prevent the exacerbation of gastric ulcers”.

As to `CSCC[C@H](N)C(=O)O` [methionine], the “inhibition of gastrointestinal ulcers” value in data set [3] is “inhibit gastrointestinal ulcers”. In addition, the “effect on gastric mucosal damage of aspirin solutions” value in data set [4] is “beneficial effect”.

Consider `CN1C(C(=O)Nc2ccccn2)=C(O)c2ccccc2S1(=O)=O` [piroxicam, 4-hydroxy-2-methyl-N-2-pyridinyl-2H-1,2-benzothiazine-3-carboxamide 1,1-dioxide], for which the in vivo half-life entry in data set [5] is listed as “long”.

The term ED50 denotes the dose at which the effect has come halfway, by size or by number of responders.
